PMC10610545, “Preclinical Evaluation of an Imidazole-Linked Heterocycle for Alzheimer’s Disease” (Pharmaceutics, 2023)

Columns and labels:
[1] = Pharmacokinetics of LSL33 in CD1 mice (plasma and brain)
Description: The pharmacokinetic study was carried on in male CD1 mice (Envigo Laboratories) with a body
weight between 40 to 50 g (n = 3-4 per group). Animals were randomized to be included in the
treated or control groups. A single intraperitoneal dose of LSL33 (2 mg/kg, 10 ml/kg) was
administered early in the morning (between 8 and 11 a.m.) without anaesthesia. Compound was
monitored for signs of pain or distress during the time between injection and euthanasia. Mice
were sacrificed by cervical dislocation and blood (0.6 mL) was collected at different time points
in tubes with serum gel and clotting activator (Sarstedt Micro tube 1.1 mL Z-Gel). Samples were
centrifugated at 10.000 rpm for 10 min to obtain plasma and stored at -80 °C up to analysis of
compound concentration by UPLC-MS/MS.

[2] = system: 5XFAD mice; test: Object location test (OLT) in 5XFAD mice; type: in vivo, mouse; conditions: 2 mg/Kg in drinking water, 4 weeks, vs 5XFAD Control
Description: (§1) Four-month-old female and male Wt and 5XFAD mice (n = 32) were used to carry out cognitive and molecular analyses. […] The animals had free access to food and water and were kept under standard temperature conditions (22 ± 2 °C) and 12 h/12 h light/dark cycles (300 lx/0 lx). […] After 4 weeks of treatment, cognitive tests, including short- and long-term memory and OLT, were performed to study the effects of treatment on learning and memory. Weight and water consumption were controlled each week, and the LSL33 concentration was adjusted accordingly to reach the optimal dose until euthanasia.
The OLT evaluated the spontaneous tendency of rodents to spend more time exploring a novel object location than a familiar object location and recognizing when an object has been relocated. OLT was performed using a white plywood apparatus (50 × 50 × 25 cm), in which three walls were white and one was black. On the first day, animals were just habituated to the empty open-field arena for 10 min. On the second day, two objects were placed in front of the black wall, equidistant from each other and the wall. The objects were 10 cm high and identical. […] Trials were recorded using a camera mounted above the open field area, and the total exploration time was determined by scoring TN and TO. DI was calculated, defined as (TN−TO)/(TN+TO). […]

[3] = system: 5XFAD mice; test: Novel object recognition test (NORT) in 5XFAD mice; type: in vivo, mouse; conditions: 2 mg/Kg in drinking water, 4 weeks, vs 5XFAD Control
Description: as §1
Short- and long-term recognition memories involving cortical areas and the hippocampus were evaluated by NORT. The experimental apparatus used for this test was a 90-degree, two-arm, 25-cm-long, 20-cm-high maze of black polyvinyl chloride. The light intensity in the middle of the field was 30 lux. First, mice were individually habituated to the apparatus for 10 min per day for 3 days. On day 4, the animals were allowed to freely explore two identical objects (A and A or B and B) placed at the end of each arm for a 10 min acquisition trial (first trial-familiarization). […] During the short-term memory retention test, the time that the animal spent exploring the new object (TN) and the old object (TO) was recorded. […] TN and TO were measured from the video recordings from each trial session. […]

[4] = Metabolic stability in human liver microsomes; type: in vitro ADME
Description: The objective of this study was to evaluate the metabolic stability of LSL33 and its depletion rate in the presence of HLM. This was achieved by incubating LSL33 with microsomes and monitoring parent disappearance using LC/MSMS (Table S6).
Metabolic stability of LSL33 in human liver microsomes
The reaction was initiated by adding HLM (1 mg/mL) to an equal volume of buffer solution containing the test compound and cofactors at the proper concentrations. Reactions without NADPH were also incubated to rule out non-NADPH metabolism or chemical instability in the […]
incubation course. All reactions were terminated using 60 µL of ice-cold acetonitrile at 0, 5, 15, […]
30, 45, and 60 min. […] All experiments were conducted in triplicate. Samples were monitored to parent compound disappearance by LC-MS in MRM mode according to a quantitation method for each compound.
LSL33 was dissolved in DMSO at 0.5 mg/mL. Assay conditions, total incubation volume 400 µL, protein concentration 1 mg/mL, NADPH, 1.3 mM. Preparation of reagents: Test compound, the final concentration in the assay. […]
prepared by dissolving appropriate amount of N ADPH in 100 mM potassium phosphate buffer. […]
from Sigma-Aldrich, Germany. The equipment needed for the study was Beckman Coulter […]
injector, Api4000 Mass Spectrometer.
Bio-Analysis: Samples were monitored for parent compound disappearance by LC-MS in MRM mode according to a previously verified quantitation method for each compound.
Data Analysis: The peak area of analyte was used to calculate the percentage of remaining compound at each incubation time (Table S7). The natural logarithm of the percentage of reamining LSL33 was plotted versus incubation time to calculate the half -life using the following […]
time) see Table S8 and Figure S11 . Intrinsic clearance was determined by the following equation:
CLint H = Ln 2/t1/2 (min) x volume incubation (mL)/microsomal protein (mg) x 45 (MPPGL) 1500 g human liver/ 70 Kg human body weight. Units for CL int are usually expressed as mL/min/mg microsomal protein (table S8), MPPGL = referred to as mg microsomal protein per gram liver.
The categories classification
Table S6. Summary of LC-MS conditions
Ionization Mode Electrospray positive
Sample matrix Microsomes+ NADPH + buffer […]
Mobile phase [Water: Acetonitrile :0.1% Formic Acid]

[5] = male, CD1, mouse, brain, po, 2 mg/kg
[6] = male, CD1, mouse, plasma, oral, 2 mg/kg

## Cl.c1ccc2sc(-c3ncc[nH]3)cc2c1 [LSL33, 2-(Benzo[b]thiophene-2-yl)-1H-imidazole hydrochloride]
[1]; [5]
  concentration at 15 min: 15.2 ng/g
  concentration at 30 min: 6.7 ng/g
[1]; [6]
  AUC(0-inf): 3050 ng·h/mL
  AUC(0-t): 2950 ng·h/mL
  Cmax: 950 ± 620 ng/mL
  Tmax: 15 min
[1]; male, CD1, mouse, plasma, oral, 2 mg/kg, t1/2β (terminal elimination half-life), CD1 mice, single 2 mg/kg dose
  half-life: 313 min
[1]; plasma, 2 mg/kg
  AUC0-1440/AUC0-∞ ratio: 0.97
[1]; plasma, CD1 mice, single 2 mg/kg dose, 2 mg/kg
  t1/2β (terminal elimination half-life): 312.81 ± 34.90 min
[1]; single oral dose
  maximum mean concentration in plasma as share of the drug administered: ≤ 1%
[2]
  OLT discrimination index (DI): increase in the discrimination index (DI)
[3]
  NORT discrimination index, short- and long-term memory: significant improvement in cognitive impairment in both short- and long-term memories
[4]; HLM intrinsic clearance bands
  hepatic clearance category: high
[4]; HLM, minus NADPH, 0 min
  % Compound Remaining: 100.0 ± 10.2%
[4]; HLM, minus NADPH, 60 min
  % Compound Remaining: 96.6 ± 9.0%
[4]; HLM, plus NADPH, 0 min
  % Compound Remaining: 100.0±9.0%
[4]; HLM, plus NADPH, 5 min
  % Compound Remaining: 4.6 ± 0.4%
[4]; HLM, plus NADPH, 15 min
  % Compound Remaining: 0.1 ± 0.1%
[4]; HLM, plus NADPH, 30 min
  % Compound Remaining: 0.2 ± 0.1%
[4]; HLM, plus NADPH, 45 min
  % Compound Remaining: 1.3 ± 0.2%
[4]; HLM, plus NADPH, 60 min
  % Compound Remaining: 0.2 ± 0.3%
[4]; human, human liver microsomes, HLM
  half-life: 1.58 min
